Data reported in US11548871B2, “Triazole carbamate pyridyl sulfonamides as LPA receptor antagonists and uses thereof” (Gilead Sciences, Inc., priority 2019, dated 2023).

The compounds below were run against human LPAR1 (Homo sapiens, UniProt Q92633) (assay: LPAR1 intracellular calcium mobilization assay (antagonist mode)).
Chain of human LPAR1 (Q92633 whole entry): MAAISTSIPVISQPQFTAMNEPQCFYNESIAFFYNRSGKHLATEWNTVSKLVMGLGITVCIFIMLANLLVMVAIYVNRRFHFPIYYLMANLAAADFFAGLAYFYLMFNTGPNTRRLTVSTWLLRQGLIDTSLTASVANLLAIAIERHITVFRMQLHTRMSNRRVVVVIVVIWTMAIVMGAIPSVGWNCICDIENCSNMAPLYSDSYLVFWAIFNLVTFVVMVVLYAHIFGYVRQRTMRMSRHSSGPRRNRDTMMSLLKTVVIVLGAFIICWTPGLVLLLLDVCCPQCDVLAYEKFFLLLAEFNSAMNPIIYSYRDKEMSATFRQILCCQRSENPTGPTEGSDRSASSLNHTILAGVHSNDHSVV

Row | SMILES | EC50 [nM]
1 | Cc1nc(-c2nnn(C)c2NC(=O)O[C@@H](c2ccccc2F)C(F)F)ccc1NS(C)(=O)=O [Compound 54, (S)-2,2-difluoro-1-(2-fluorophenyl)ethyl (1-methyl-4-(6-methyl-5-(methylsulfonamido)pyridin-2-yl)-1H-1,2,3-triazol-5-yl)carbamate] | 90.6
2 | Cc1nc(-c2nnn(C)c2NC(=O)OCc2cc(F)ccc2F)ccc1NS(C)(=O)=O [Compound 36, 2,5-difluorobenzyl (1-methyl-4-(6-methyl-5-(methylsulfonamido)pyridin-2-yl)-1H-1,2,3-triazol-5-yl)carbamate] | 220
3 | Cc1nc(-c2nnn(C)c2NC(=O)O[C@H](C)c2cc(F)ccc2Cl)ccc1NS(C)(=O)=O [Compound 60, (R)-1-(2-chloro-5-fluorophenyl)ethyl (1-methyl-4-(6-methyl-5-(methylsulfonamido)pyridin-2-yl)-1H-1,2,3-triazol-5-yl)carbamate] | 31.3
4 | COCc1ccccc1[C@@H](C)OC(=O)Nc1c(-c2ccc(NS(C)(=O)=O)c(C)n2)nnn1C [Compound 35, (R)-1-(2-(methoxymethyl)phenyl)ethyl (1-methyl-4-(6-methyl-5-(methylsulfonamido)pyridin-2-yl)-1H-1,2,3-triazol-5-yl)carbamate] | 327
5 | Cc1nc(-c2nnn(C)c2NC(=O)O[C@@H](c2cccc(Cl)c2)C(F)F)ccc1NS(C)(=O)=O [Compound 62, (S)-1-(3-chlorophenyl)-2,2-difluoroethyl (1-methyl-4-(6-methyl-5-(methylsulfonamido)pyridin-2-yl)-1H-1,2,3-triazol-5-yl)carbamate] | 29
6 | Cc1nc(-c2nnn(C)c2NC(=O)O[C@H](CF)c2ccccc2)ccc1NS(C)(=O)=O [Compound 59, (S)-2-fluoro-1-phenylethyl (1-methyl-4-(6-methyl-5-(methylsulfonamido)pyridin-2-yl)-1H-1,2,3-triazol-5-yl)carbamate] | 37.7
7 | Cc1nc(-c2nnn(C)c2NC(=O)OCc2ccccc2Cl)ccc1NS(C)(=O)=O [Compound 40, 2-chlorobenzyl (1-methyl-4-(6-methyl-5-(methylsulfonamido)pyridin-2-yl)-1H-1,2,3-triazol-5-yl)carbamate] | 87
8 | CCCCC[C@H](OC(=O)Nc1c(-c2ccc(NS(C)(=O)=O)c(C)n2)nnn1C)C(F)(F)F [Compound 47, (S)-1,1,1-trifluoroheptan-2-yl (1-methyl-4-(6-methyl-5-(methylsulfonamido)pyridin-2-yl)-1H-1,2,3-triazol-5-yl)carbamate] | 132
9 | Cc1nc(-c2nnn(C)c2NC(=O)OCCC(C)C)ccc1NS(C)(=O)=O [Compound 33, isopentyl (1-methyl-4-(6-methyl-5-(methylsulfonamido)pyridin-2-yl)-1H-1,2,3-triazol-5-yl)carbamate] | 3680
10 | CCCCCCOC(=O)Nc1c(-c2ccc(NS(C)(=O)=O)c(C)n2)nnn1C [Compound 31, hexyl (1-methyl-4-(6-methyl-5-(methylsulfonamido)pyridin-2-yl)-1H-1,2,3-triazol-5-yl)carbamate] | 1220
11 | Cc1nc(-c2nnn(C)c2NC(=O)OCCCC(C)C)ccc1NS(C)(=O)=O [Compound 29, 4-methylpentyl (1-methyl-4-(6-methyl-5-(methylsulfonamido)pyridin-2-yl)-1H-1,2,3-triazol-5-yl)carbamate] | 325
12 | Cc1nc(-c2nnn(C)c2NC(=O)O[C@H](CC#N)c2ccccc2)ccc1NS(C)(=O)=O [Compound 50, (R)-2-cyano-1-phenylethyl (1-methyl-4-(6-methyl-5-(methylsulfonamido)pyridin-2-yl)-1H-1,2,3-triazol-5-yl)carbamate] | 730
13 | CCCn1nnc(-c2ccc(NS(C)(=O)=O)c(C)n2)c1NC(=O)O[C@H](C)c1ccccc1Cl [Compound 12, (R)-1-(2-chlorophenyl)ethyl (4-(6-methyl-5-(methylsulfonamido)pyridin-2-yl)-1-propyl-1H-1,2,3-triazol-5-yl)carbamate] | 221
14 | Cc1nc(-c2nnn(C)c2NC(=O)OCc2cc(F)ccc2Cl)ccc1NS(C)(=O)=O [Compound 38, 2-chloro-5-fluorobenzyl (1-methyl-4-(6-methyl-5-(methylsulfonamido)pyridin-2-yl)-1H-1,2,3-triazol-5-yl)carbamate] | 167
15 | C[C@@H](OC(=O)Nc1c(-c2ccc(NS(C)(=O)=O)cn2)nnn1C)c1ccccc1F [Compound 16, (R)-1-(2-fluorophenyl)ethyl (1-methyl-4-(5-(methylsulfonamido)pyridin-2-yl)-1H-1,2,3-triazol-5-yl)carbamate] | 5.3
16 | C[C@@H](OC(=O)Nc1c(-c2ccc(NS(C)(=O)=O)c(Cl)n2)nnn1C)c1ccccc1 [Compound 2, (R)-1-phenylethyl (4-(6-chloro-5-(methylsulfonamido)pyridin-2-yl)-1-methyl-1H-1,2,3-triazol-5-yl)carbamate] | 270
17 | C[C@@H](OC(=O)Nc1c(-c2ccc(NS(C)(=O)=O)c(F)n2)nnn1C)c1ccccc1Cl [Compound 5, (R)-1-(2-chlorophenyl)ethyl (4-(6-fluoro-5-(methylsulfonamido)pyridin-2-yl)-1-methyl-1H-1,2,3-triazol-5-yl)carbamate] | 34.3

Continued, values first:

Row | EC50 [nM] | SMILES
18 | 142 | Cc1nc(-c2nnn(C)c2NC(=O)O[C@H](C)c2cc(Cl)cnc2Cl)ccc1NS(C)(=O)=O [Compound 142, (R)-1-(2,5-dichloropyridin-3-yl)ethyl (1-methyl-4-(6-methyl-5-(methylsulfonamido)pyridin-2-yl)-1H-1,2,3-triazol-5-yl)carbamate]
19 | 69.9 | Cc1nc(-c2nnn(C)c2NC(=O)O[C@H](C)c2ccccc2C(F)(F)F)ccc1NS(C)(=O)=O [Compound 98, (R)-1-(2-(trifluoromethyl)phenyl)ethyl (1-methyl-4-(6-methyl-5-(methylsulfonamido)pyridin-2-yl)-1H-1,2,3-triazol-5-yl)carbamate]
20 | 282 | Cc1nc(-c2nnn(C)c2NC(=O)O[C@H](C)c2cc(F)c(F)cc2F)ccc1NS(C)(=O)=O [Compound 90, (R)-1-(2,4,5-trifluorophenyl)ethyl(1-methyl-4-(6-methyl-5-(methylsulfonamido)pyridin-2-yl)-1H-1,2,3-triazol-5-yl)carbamate]
21 | 1740 | CCCCC[C@@H](C)OC(=O)Nc1c(-c2ccc(NS(C)(=O)=O)c(C)n2)nnn1C [Compound 71, (R)-heptan-2-yl (1-methyl-4-(6-methyl-5-(methylsulfonamido)pyridin-2-yl)-1H-1,2,3-triazol-5-yl)carbamate]
22 | 1420 | C=Cc1ncccc1[C@@H](C)OC(=O)Nc1c(-c2ccc(NS(C)(=O)=O)c(C)n2)nnn1C [Compound 127, (R)-1-(2-vinylpyridin-3-yl)ethyl (1-methyl-4-(6-methyl-5-(methylsulfonamido)pyridin-2-yl)-1H-1,2,3-triazol-5-yl)carbamate]
23 | 312 | Cc1nc(-c2nnn(C)c2NC(=O)O[C@H](C)c2cccc(F)c2F)ccc1NS(C)(=O)=O [Compound 87, (R)-1-(2,3-difluorophenyl)ethyl(1-methyl-4-(6-methyl-5-(methylsulfonamido)pyridin-2-yl)-1H-1,2,3-triazol-5-yl)carbamate]
24 | 461 | CC(OC(=O)Nc1c(-c2ccc(NS(C)(=O)=O)cn2)nnn1C)c1c(F)ccnc1Cl (centres unmarked) [Compound 121, 1-(2-chloro-4-fluoropyridin-3-yl)ethyl (1-methyl-4-(5-(methylsulfonamido)pyridin-2-yl)-1H-1,2,3-triazol-5-yl)carbamate]
25 | 305 | Cc1nc(-c2nnn(C)c2NC(=O)O[C@H](C)c2scnc2Cl)ccc1NS(C)(=O)=O [Compound 140, (R)-1-(4-chlorothiazol-5-yl)ethyl (1-methyl-4-(6-methyl-5-(methylsulfonamido)pyridin-2-yl)-1H-1,2,3-triazol-5-yl)carbamate]
26 | 110 | Cc1nc(-c2nnn(C)c2NC(=O)O[C@H](C)c2cc(F)cnc2Cl)ccc1NS(C)(=O)=O [Compound 74, (R)-1-(2-chloro-5-fluoropyridin-3-yl)ethyl (1-methyl-4-(6-methyl-5-(methylsulfonamido)pyridin-2-yl)-1H-1,2,3-triazol-5-yl)carbamate]
27 | 56.3 | Cc1nc(-c2nnn(C)c2NC(=O)O[C@H](C)c2ccccc2Cl)ccc1NS(=O)(=O)C1CC1 [Compound 103, (R)-1-(2-chloro-phenyl)ethyl(4-(5-(cyclopropane-sulfonamido)-6-methylpyridin-2-yl)-1-methyl-1H-1,2,3-triazol-5-yl)carbamate]
28 | 272 | Cc1nc(-c2nnn(C)c2NC(=O)OC(C)c2cc(Br)cnc2Cl)ccc1NS(C)(=O)=O (centres unmarked) [Compound 130, 1-(5-bromo-2-chloropyridin-3-yl)ethyl (1-methyl-4-(6-methyl-5-(methylsulfonamido)pyridin-2-yl)-1H-1,2,3-triazol-5-yl)carbamate]
29 | 3770 | Cc1nc(-c2nnn(C)c2NC(=O)OC(C)c2conc2C)ccc1NS(C)(=O)=O (centres unmarked) [Compound 136, 1-(3-methylisoxazol-4-yl)ethyl (1-methyl-4-(6-methyl-5-(methylsulfonamido)pyridin-2-yl)-1H-1,2,3-triazol-5-yl)carbamate]
30 | 106 | Cc1ncc(F)cc1[C@@H](C)OC(=O)Nc1c(-c2ccc(NS(C)(=O)=O)cn2)nnn1C [Compound 112, (R)-1-(5-fluoro-2-methylpyridin-3-yl)ethyl (1-methyl-4-(5-(methylsulfonamido)pyridin-2-yl)-1H-1,2,3-triazol-5-yl)carbamate]
31 | 1050 | C[C@@H](OC(=O)Nc1c(-c2ccc(NS(C)(=O)=O)c(C(F)F)n2)nnn1C)c1ccccc1 [Compound 150, (R)-1-phenylethyl (4-(6-(difluoromethyl)-5-(methylsulfonamido)pyridin-2-yl)-1-methyl-1H-1,2,3-triazol-5-yl)carbamate]
32 | 1130 | Cc1nc(-c2nnn(C)c2NC(=O)OC(C)c2ccncc2F)ccc1NS(C)(=O)=O (centres unmarked) [Compound 132, 1-(3-fluoropyridin-4-yl)ethyl (1-methyl-4-(6-methyl-5-(methylsulfonamido)pyridin-2-yl)-1H-1,2,3-triazol-5-yl)carbamate]
